Assays:
[1] = test system: healthy, drug-free male volunteers; assay: Cold pressor test in healthy volunteers; type: in vivo, human; details: 3-60 mg single oral dose, 1° C. water
Protocol: Analgesic effect was assessed based on duration of hand immersion in ice water and on visual analog scale (VAS) pain scores upon hand removal from the water bath.
Safety and tolerability of noribogaine were tested in the group of volunteers from Example 9. […] Safety evaluations included clinical monitoring, recording of adverse events (AEs), safety laboratory tests, vital signs, ECG telemetry from −2 h to 6 h after dosing, and 12-lead electrocardiograms (ECGs) up to 216 hours post-dosing.

[2] = test system: opioid-dependent participants; assay: Time to resumption of opioid substitution treatment and withdrawal scales (COWS, SOWS, OOWS); type: in vivo, human
Protocol: Three cohorts of nine (9) subjects (6 administered noribogaine and 3 administered placebo in each cohort) were evaluated for tolerability, pharmacokinetics, and efficacy. Cohort 1 received a single dose of 60 mg noribogaine or placebo. Cohort 2 received a single dose of 120 mg noribogaine or placebo. Cohort 3 received a single dose of 180 mg noribogaine or placebo.
Patients were evaluated based on the Clinical Opiate Withdrawal Scale (COWS), Subjective Opiate Withdrawal Scale (SOWS), and Objective Opiate Withdrawal Scale (OOWS) scoring systems over the period of time between administration of noribogaine (or placebo) until resumption of OST. These scales are outlined in Guidelines for the Psychosocially Assisted Pharmacological Treatment of Opioid Dependence, World Health Organization, Geneva (2009), Annex 10, which is incorporated herein by reference in its entirety. The scales measure the intensity of withdrawal symptoms, based on clinical, subjective, and objective indicia.

CC[C@H]1CC2C[C@H]3c4[nH]c5ccc(O)cc5c4CCN(C2)C13 [noribogaine]
analgesic effect (duration of hand immersion, VAS pain scores) [1]: no analgesic effect
withdrawal symptoms (COWS, OOWS, SOWS), first six hours following dosing ([2]; 120 mg): generally experienced fewer withdrawal symptoms than the other patients
average time to resumption of opioids (OST) ([2]; single 120 mg dose): greater than 20 hours

— patent US20160038505A1, “METHODS AND COMPOSITIONS FOR TREATING IMPULSE CONTROL DISORDER, ANXIETY-RELATED DISORDERS, VIOLENCE AND/OR ANGER, OR REGULATING FOOD INTAKE” (priority 2014, published 2016)
